In the supplement of paper PMC10657565:
± gives the uncertainty stated by the source.

Tests used:
BT-474 = assay: relative cell viability vs DMSO control (% of DMSO control); higher = less growth inhibition (higher viability); conditions: treatment time: 72 h
Method: (§1)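 Breast cancer cell lines (BT-474, HCC1806, SUM-159, SKBR-3) were seeded in triplicate in 96-well plates and treated 24 h after seeding with kinase inhibitors at 8 doses (3 nM to 30 uM). After 72 h, viability was read by CellTiter-Glo luminescence. Values were averaged over replicates and normalised to DMSO-only (0.1%) controls on each plate to give relative viability (% of DMSO).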

HCC1806 = assay: as above; conditions: treatment time: 72 h
Method: as §1

Compound | relative cell viability (BT-474; 0.003 µM) | relative cell viability (BT-474; 0.01 µM) | relative cell viability (BT-474; 0.03 µM) | relative cell viability (BT-474; 0.1 µM) | relative cell viability (BT-474; 0.3 µM) | relative cell viability (BT-474; 1 µM) | relative cell viability (BT-474; 3 µM) | relative cell viability (BT-474; 30 µM) | relative cell viability (HCC1806; 0.003 µM) | relative cell viability (HCC1806; 0.01 µM) | relative cell viability (HCC1806; 0.03 µM) | relative cell viability (HCC1806; 0.1 µM) | relative cell viability (HCC1806; 0.3 µM) | relative cell viability (HCC1806; 1 µM) | relative cell viability (HCC1806; 3 µM) | relative cell viability (HCC1806; 30 µM)
CNS(=O)(=O)Nc1nccc(Cc2c(C)c3ccc(Oc4ncccn4)cc3oc2=O)c1F | 98.4 ± 1.4 | 94.3 ± 1.5 | 97.2 ± 2.2 | 94.9 ± 5.3 | 92.8 ± 2.1 | 87.6 ± 5.1 | 87.6 ± 1.8 | 41.6 ± 2.2 | 90 ± 7.3 | 86.2 ± 1.2 | 78.5 ± 0.86 | 77.8 ± 2.5 | 74.9 ± 3.6 | 75.1 ± 5.3 | 73.7 ± 3.6 | 72.8 ± 4.9
Cc1nc(Nc2n[nH]c3c2CN(C(=O)N[C@H](CN(C)C)c2ccccc2)C3(C)C)c2sccc2n1 | 96.3 ± 2.5 | 92.7 ± 4.8 | 89.7 ± 3.5 | 86.5 ± 2.5 | 82.6 ± 5.6 | 70 ± 6.6 | 44 ± 2.3 | 21.3 ± 0.7 | 66.9 ± 11 | 46.3 ± 6 | 36.2 ± 1.9 | 32.5 ± 1.8 | 29.6 ± 1.5 | 19.4 ± 1.2 | 4.75 ± 0.17 | 2.8 ± 0.096
Cn1nccc1Nc1nccc(-c2ccn([C@H](CO)c3ccc(Cl)c(F)c3)c(=O)c2)n1 [GDC-0994] | 102 ± 6.2 | 101 ± 6.1 | 97.6 ± 7.6 | 94.3 ± 3.5 | 95.3 ± 5 | 97.8 ± 9.2 | 101 ± 11 | 88.4 ± 6.7 | 97.15 ± 0.91 | 94.8 ± 2.7 | 92 ± 4.1 | 88.3 ± 6.2 | 81.5 ± 3.2 | 81.6 ± 4 | 84.9 ± 3.7 | 73.5 ± 2.6
C[C@]12O[C@H](C[C@]1(O)CO)n1c3ccccc3c3c4c(c5c6ccccc6n2c5c31)CNC4=O [Lestaurtinib] | 87.8 ± 1.5 | 77.2 ± 3.4 | 73.6 ± 4.1 | 66.8 ± 7.2 | 59.5 ± 2.3 | 49.5 ± 2.6 | 37.9 ± 0.67 | 1.31 ± 0.099 | 83.42 ± 0.79 | 63.1 ± 3 | 43.6 ± 5.3 | 16 ± 0.76 | 7.81 ± 0.93 | 3.73 ± 0.28 | 2.9 ± 0.12 | 0.918 ± 0.075
C[C@@H](NC(=O)c1ncnc(N)c1Cl)c1ncc(C(=O)Nc2cc(C(F)(F)F)c(Cl)cn2)s1 [MLN-2480] | 93.9 ± 2.1 | 98.5 ± 6 | 97.3 ± 2.4 | 95.8 ± 4.7 | 88.1 ± 6.3 | 77.5 ± 3.7 | 86.6 ± 9.7 | 69.5 ± 7 | 102 ± 1.9 | 102 ± 1.8 | 103 ± 1.8 | 102 ± 2.5 | 103 ± 2.3 | 100 ± 5 | 101.2 ± 0.76 | 68 ± 4.8
Cc1ccc(-n2nc(C(C)(C)C)cc2NC(=O)NCc2cc(F)ccc2Oc2ccc3c(cnn3CCO)c2)cc1 [Pexmetinib] | 116 ± 3.7 | 118 ± 3 | 119 ± 1.9 | 118 ± 4.1 | 116 ± 6.1 | 110 ± 5 | 105 ± 3.3 | 28 ± 0.44 | 98.7 ± 2.1 | 100 ± 3.3 | 102 ± 4.9 | 105 ± 5.4 | 106 ± 4.4 | 102 ± 3.3 | 88.3 ± 4.1 | 12.7 ± 1.3
